{
  "source": "patent US20050100577A1",
  "about": "“Expandable medical device with beneficial agent matrix formed by a multi solvent system” (priority 2003, published 2005)",
  "key": {"[1]": {"text": "A second drug, such as paclitaxel, which is soluble in anisole can be provided in the top layers. Therefore, the arrangement shown in FIG. 4 can include 2-CdA in the first therapeutic agent layer 60 and paclitaxel in the second therapeutic agent layer 70."}, "[2]": {"conditions": "cited from earlier work"}},
  "data": [
    {"smiles": "Nc1nc(Cl)nc2c1ncn2[C@H]1C[C@H](O)[C@@H](CO)O1", "note": "[2-CdA, 2-chlorodeoxyadenosine]", "values": [
      {"measurement": "solubility in first solvent, DMSO", "setting": "[1]", "value": "very soluble"},
      {"measurement": "solubility in second solvent, anisole", "setting": "[1]", "value": "marginal solubility"},
      {"measurement": "water solubility", "setting": "[2]", "value": "about 4.5 mg/ml"}
    ]}
  ]
}
